The molecules below were run on PCA response (assay: rat Passive Cutaneous Anaphylaxis Test (PCA test)). Settings: sc, 10 min, 1 mg/kg, 10 mins. prior to challenge, subcutaneous, sodium salt.
Format: in vivo, rat (male Wistar)
Procedure: The compounds prepared in the preceding examples were tested in the rat Passive Cutaneous Anaphylaxis Test (PCA test), described below. They were administered as their sodium salts either in pH 7.2 phosphate buffer (for soluble salts) or as a suspension in 1% methyl cellulose (for insoluble salts).
Male Wistar rats of 250-300 g, were injected intraperitoneally with 0.5 ml. of Bordatella pertussis vaccine (containing 4× 10^10 dead organism per ml) and subcutaneously with 0.5 ml. of an emulsion of 100 mg. of ovalbumin in 2 ml. of saline and 3 ml. of incomplete Freunds' adjuvant. Rats were bled by cardiac puncture on day 18, the blood was pooled and separated and serum stored at -20° and thawed only once before use.
0.1 ml. of each of six twofold serial dilutions of the serum in 0.9% saline were injected intradermally into separate sites on the shaved dorsal surface of 250-350 g. Male Wistar rats. 72 hours later the animals were challenged by i.v. injection of 0.3 ml. of 1% ovalbumin mixed with 0.1 ml. of a 5% solution of pontamine sky blue dye both in isotonic saline buffered with pH 7.2 Sorenson buffer (P.B.S.). The rats were killed after 20 minutes and the diameter of the blue wheals at the antibody injection sites were measured. The starting dilution of the serum was adjusted so that there was no response, after challenge, at the site of injection of the highest dilution and a maximum response at the two or three lowest dilutions.
Amounts of the compounds were administered to rats by subcutaneous injection, into the nucal region, of a solution of the compound in P.B.S. or as a suspension in 1% methyl cellulose, each amount a test group of six animals at a specified time prior to intravenous challenge with ovalbumin.
% Inhibition of P.C.A.= 100 (1 -a/b)
For those compounds having insoluble sodium salts, the salts were isolated by reaction of the free cyano compound with 2.5N sodium hydroxide and the filtered sodium salt washed free of alkali with water. The dried salts were then administered as a suspension in 1% methyl cellulose.

Row | Compound | inhibition in vivo at 1 mg/kg [%]
1 | N#Cc1c(O)c2cc3c(cc2oc1=O)CCCC3 [Example 18, 3-Cyano-4-hydroxy-2-oxo-6,7,8,9-tetrahydro-2H-naphtho [2,3-b] pyran] | 2

Same assay, conditions: sc, 10 min, 2 mg/kg, 10 mins. prior to challenge, subcutaneous, sodium salt

Row | Compound | inhibition in vivo at 2 mg/kg [%]
2 | N#Cc1c(O)c2cc3c(cc2oc1=O)CCCC3 [Example 18, 3-Cyano-4-hydroxy-2-oxo-6,7,8,9-tetrahydro-2H-naphtho [2,3-b] pyran] | 22

Same assay, conditions: sc, 10 min, 2.5 mg/kg, 10 mins. prior to challenge, subcutaneous, sodium salt

Row | Compound | inhibition in vivo at 2.5 mg/kg [%]
3 | Cc1ccc2c(O)c(C#N)c(=O)oc2c1C [Example 21, 3-Cyano-7,8-dimethyl-4-hydroxycoumarin monohydrate] | 20
4 | Cc1cc2c(cc1C)C(=O)C(C#N)C2=O [Example 3, 2-Cyano-5,6-dimethyl indan-1,3-dione] | 46
5 | CCc1cc2oc(=O)c(C#N)c(O)c2cc1CC [Example 12, 3-Cyano-6,7-diethyl-4-hydroxy coumarin] | 64

Same assay, conditions: sc, 10 min, 4 mg/kg, 10 mins. prior to challenge, subcutaneous, sodium salt

Row | Compound | inhibition in vivo at 4 mg/kg [%]
6 | N#Cc1c(O)c2cc3c(cc2oc1=O)CCCC3 [Example 18, 3-Cyano-4-hydroxy-2-oxo-6,7,8,9-tetrahydro-2H-naphtho [2,3-b] pyran] | 52

Same assay, conditions: sc, 10 min, 5 mg/kg, 10 mins. prior to challenge, subcutaneous, sodium salt

Row | Compound | inhibition in vivo at 5 mg/kg [%]
7 | Cc1ccc2c(O)c(C#N)c(=O)oc2c1C [Example 21, 3-Cyano-7,8-dimethyl-4-hydroxycoumarin monohydrate] | 39
8 | CCOc1ccc2c(O)c(C#N)c(=O)oc2c1 [Example 16, 3-Cyano-7-ethyloxy-4-hydroxy coumarin monohydrate] | 59
9 | COc1cccc2c1C(=O)C(C#N)C2=O (centres unmarked) [Example 5, 2-Cyano-4-methoxy indan-1,3-dione] | 28
10 | Cc1cc2c(cc1C)C(=O)C(C#N)C2=O [Example 3, 2-Cyano-5,6-dimethyl indan-1,3-dione] | 56
11 | Cc1cccc2c1C(=O)C(C#N)C2=O (centres unmarked) [Example 4, 2-Cyano-4-methyl indan-1,3-dione] | 21
12 | CCc1cc2c(cc1CC)C(=O)C(C#N)C2=O [Example 8, 2-Cyano-5,6-diethyl indan-1,3-dione] | 74
13 | CCc1cc2oc(=O)c(C#N)c(O)c2cc1CC [Example 12, 3-Cyano-6,7-diethyl-4-hydroxy coumarin] | 72

Same assay, conditions: sc, 10 min, 8 mg/kg, 10 mins. prior to challenge, subcutaneous, sodium salt

Row | Compound | inhibition in vivo at 8 mg/kg [%]
14 | N#Cc1c(O)c2cc3c(cc2oc1=O)CCCC3 [Example 18, 3-Cyano-4-hydroxy-2-oxo-6,7,8,9-tetrahydro-2H-naphtho [2,3-b] pyran] | 67

Same assay, conditions: sc, 10 min, 10 mg/kg, 10 mins. prior to challenge, subcutaneous, sodium salt

Row | Compound | inhibition in vivo at 10 mg/kg [%]
15 | Cc1ccc2c(O)c(C#N)c(=O)oc2c1C [Example 21, 3-Cyano-7,8-dimethyl-4-hydroxycoumarin monohydrate] | 65
16 | CCOc1ccc2c(O)c(C#N)c(=O)oc2c1 [Example 16, 3-Cyano-7-ethyloxy-4-hydroxy coumarin monohydrate] | 71
17 | COc1cccc2c1C(=O)C(C#N)C2=O (centres unmarked) [Example 5, 2-Cyano-4-methoxy indan-1,3-dione] | 16
18 | Cc1cc2c(cc1C)C(=O)C(C#N)C2=O [Example 3, 2-Cyano-5,6-dimethyl indan-1,3-dione] | 77
19 | Cc1cccc2c1C(=O)C(C#N)C2=O (centres unmarked) [Example 4, 2-Cyano-4-methyl indan-1,3-dione] | 25
20 | CCc1cc2c(O)c(C#N)c(=O)oc2cc1C [Example 10, 3-Cyano-6-ethyl-4-hydroxy-7-methyl coumarin] | 71
21 | N#CC1C(=O)c2ccc(Cl)cc2C1=O (centres unmarked) [Example 7, 5-Chloro-2-cyano indan-1,3-dione] | 33
22 | CCc1cc2c(cc1CC)C(=O)C(C#N)C2=O [Example 8, 2-Cyano-5,6-diethyl indan-1,3-dione] | 90
23 | CCc1cc2oc(=O)c(C#N)c(O)c2cc1CC [Example 12, 3-Cyano-6,7-diethyl-4-hydroxy coumarin] | 68

Same assay, conditions: sc, 10 min, 20 mg/kg, 10 mins. prior to challenge, subcutaneous, sodium salt

Row | Compound | inhibition in vivo at 20 mg/kg [%]
24 | Cc1ccc2c(O)c(C#N)c(=O)oc2c1C [Example 21, 3-Cyano-7,8-dimethyl-4-hydroxycoumarin monohydrate] | 97
25 | CCOc1ccc2c(O)c(C#N)c(=O)oc2c1 [Example 16, 3-Cyano-7-ethyloxy-4-hydroxy coumarin monohydrate] | 86
26 | COc1cccc2c1C(=O)C(C#N)C2=O (centres unmarked) [Example 5, 2-Cyano-4-methoxy indan-1,3-dione] | 57
27 | Cc1cc2c(cc1C)C(=O)C(C#N)C2=O [Example 3, 2-Cyano-5,6-dimethyl indan-1,3-dione] | 92
28 | Cc1cccc2c1C(=O)C(C#N)C2=O (centres unmarked) [Example 4, 2-Cyano-4-methyl indan-1,3-dione] | 75
29 | CCc1cc2c(cc1CC)C(=O)C(C#N)C2=O [Example 8, 2-Cyano-5,6-diethyl indan-1,3-dione] | 78
30 | CCc1cc2oc(=O)c(C#N)c(O)c2cc1CC [Example 12, 3-Cyano-6,7-diethyl-4-hydroxy coumarin] | 93

Same assay, conditions: sc, 10 min, 25 mg/kg, 10 mins. prior to challenge, subcutaneous, sodium salt

Row | Compound | inhibition in vivo at 25 mg/kg [%]
31 | CCc1cc2c(O)c(C#N)c(=O)oc2cc1C [Example 10, 3-Cyano-6-ethyl-4-hydroxy-7-methyl coumarin] | 67
32 | N#CC1C(=O)c2cc3ccccc3cc2C1=O [Example 6, 5,6-Benzo-2-cyano indan-1,3-dione] | 88
33 | N#CC1C(=O)c2ccc(Cl)cc2C1=O (centres unmarked) [Example 7, 5-Chloro-2-cyano indan-1,3-dione] | 76

Same assay, conditions: sc, 10 min, 40 mg/kg, 10 mins. prior to challenge, subcutaneous, sodium salt

Row | Compound | inhibition in vivo at 40 mg/kg [%]
34 | CCOc1ccc2c(O)c(C#N)c(=O)oc2c1 [Example 16, 3-Cyano-7-ethyloxy-4-hydroxy coumarin monohydrate] | 73
35 | COc1cccc2c1C(=O)C(C#N)C2=O (centres unmarked) [Example 5, 2-Cyano-4-methoxy indan-1,3-dione] | 81
36 | Cc1cccc2c1C(=O)C(C#N)C2=O (centres unmarked) [Example 4, 2-Cyano-4-methyl indan-1,3-dione] | 83
37 | CCc1cc2c(cc1CC)C(=O)C(C#N)C2=O [Example 8, 2-Cyano-5,6-diethyl indan-1,3-dione] | 64

Same assay, conditions: sc, 10 min, 100 mg/kg, 10 mins. prior to challenge, subcutaneous, sodium salt

Row | Compound | inhibition in vivo at 100 mg/kg [%]
38 | N#CC1C(=O)c2cc3ccccc3cc2C1=O [Example 6, 5,6-Benzo-2-cyano indan-1,3-dione] | 70

Same assay, conditions: sc, 0.5 h, 10 mg/kg, 30 mins. prior to challenge, subcutaneous, sodium salt

Row | Compound | inhibition in vivo at 10 mg/kg [%]
39 | CCc1cc2c(O)c(C#N)c(=O)oc2cc1C [Example 10, 3-Cyano-6-ethyl-4-hydroxy-7-methyl coumarin] | 24
40 | N#CC1C(=O)c2ccc(Cl)cc2C1=O (centres unmarked) [Example 7, 5-Chloro-2-cyano indan-1,3-dione] | 21

Same assay, conditions: sc, 0.5 h, 25 mg/kg, 30 mins. prior to challenge, subcutaneous, sodium salt

Row | Compound | inhibition in vivo at 25 mg/kg [%]
41 | CCc1cc2c(O)c(C#N)c(=O)oc2cc1C [Example 10, 3-Cyano-6-ethyl-4-hydroxy-7-methyl coumarin] | 17
42 | N#CC1C(=O)c2cc3ccccc3cc2C1=O [Example 6, 5,6-Benzo-2-cyano indan-1,3-dione] | 27
43 | N#CC1C(=O)c2ccc(Cl)cc2C1=O (centres unmarked) [Example 7, 5-Chloro-2-cyano indan-1,3-dione] | 15

Same assay, conditions: sc, 0.5 h, 100 mg/kg, 30 mins. prior to challenge, subcutaneous, sodium salt

Row | Compound | inhibition in vivo at 100 mg/kg [%]
44 | N#CC1C(=O)c2cc3ccccc3cc2C1=O [Example 6, 5,6-Benzo-2-cyano indan-1,3-dione] | 30

Source: patent publication US4032544A, “3-Cyano-4-hydroxy coumarin derivatives” (Beecham Group Limited, priority 1974, dated 1977)
